Earlier results, collected in US6444700B1, “Product and method to reduce stress induced immune suppression” (Abbott Laboratories, priority 1998, dated 2002).

CC1=C(/C=C/C(C)=C/C=C/C(C)=C/CO)C(C)(C)CCC1 [Vitamin A, retinol]
sustained daily intake at which signs of toxicity usually appear (foods and supplements): exceeding 15,000 RE

[Se] [selenium]
intake from foods resulting in fingernail changes and hair loss (seleniferous zone of China): approximately 5 mg per day

CC1=C(/C=C/C(C)=C/C=C/C(C)=C/C=C/C=C(C)/C=C/C=C(C)/C=C/C2=C(C)CCCC2(C)C)C(C)(C)CCC1 [β-Carotene]
toxicity when given in very high doses (compared with vitamin A): not toxic
